Key:
Rat DRG cells = assay: Cisplatin-induced neurite degeneration in DRG cells; type: cell-based; conditions: 0.3 μM with 0.5 mM cisplatin, 48 hours; p<0.05; FIG. 3
Procedure: Rat DRG cells were used to investigate the protective effect of HDAC6 inhibitors. DRG cells were treated with 0.5 mM of cisplatin with or without 0.3 μM of COMPOUND 2 or ACY1215 for 48 hours. The neurite area and the number of blebs (cell apoptosis) per image were calculated and their ratio values among the tested groups were compared and shown in FIG. 3.

[1] = test system: cisplatin-induced neuropathy; assay: Cisplatin-induced neuropathy, von Frey paw-withdrawal murine model; type: in vivo, Balb/c mice; conditions: oral once daily Day 16 to 29 (pregabalin 15 mg/kg one hour prior to test); vs cisplatin control; FIG. 4
Procedure: To understand whether COMPOUND 2 exerts neuron protective activities in cisplatin-induced neuropathy, a paw-withdrawal murine model is deployed. The 50% paw withdrawal threshold (PWT) to a static mechanical stimulus was assessed using von Frey filament and up-and-down method following the procedure described by Chaplan (1994). Mechanical allodynia, a painful sensation caused by innocuous stimuli like light touch, was assessed by the manual von Frey test once per week (on day 7, 14, 21, 28, […], and 42). The animals indicated sensation by pulling back its paw. The minimum force leading to withdrawal of the paw was regarded as the reflex threshold.
Balb/c mice weighing about 25±2 gram were given cisplatin intraperitoneally at the dose of 1.5 mg/kg for 5 consecutive days (cumulative dose of 7.5 mg/kg), followed by 5 days of recovery. The cisplatin administration cycle was repeated once more to reach a cumulative dose of 15 mg/kg to induce neuropathy. Test compounds, COMPOUND 2 and ACY1215, were orally administered once daily for 2 weeks (except for the weekends) from Day 16 to 29. Pregabalin, a drug known to provide transient pain relief, was administered at a dose of 15 mg/kg prior to each von Frey stimulus test to serve as the positive control.

HDAC1 = target: T1, HDAC1 (Homo sapiens, UniProt Q13547); assay: HDAC1 activity, acetylated-AMC-labeled peptide substrate; type: biochemical
T1 construct: GST (C); host or cells: baculovirus expression system, Sf9 insect cells (SP9 [sic])
Procedure: (§1) The activities of HDAC 1 and 6 were measured by using an acetylated-AMC-labeled peptide substrate, a fluorogenic peptide from p53 residues 379-382 (RHIKKAc). The proteins involved in the assay are as the followings (1) Human HIDAC1 (Genflank Accession No. NM_004964): Full length with C-terminal GST tag, MW=79.9 kDa, expressed by baculovirus expression system in SP9 cells; and (2) Human HIDAC6 (Genflank Accession No. BC069243): Full length with N-terminal GST tag, MW=159 kDa, expressed by baculovirus expression system in Sf9 cells.

HDAC6 = target: T2, HDAC6 (Homo sapiens, UniProt Q9UBN7); assay: HDAC6 activity, acetylated-AMC-labeled peptide substrate; type: biochemical; conditions: for HDAC6 selectivity (A)/(B): HDAC1 IC50 / HDAC6 IC50; for IC50: read-out: HDAC6 IC50 (B)
T2 construct: GST (N); host or cells: baculovirus expression system, Sf9 insect cells
T2 sequence (Q9UBN7 1-1215): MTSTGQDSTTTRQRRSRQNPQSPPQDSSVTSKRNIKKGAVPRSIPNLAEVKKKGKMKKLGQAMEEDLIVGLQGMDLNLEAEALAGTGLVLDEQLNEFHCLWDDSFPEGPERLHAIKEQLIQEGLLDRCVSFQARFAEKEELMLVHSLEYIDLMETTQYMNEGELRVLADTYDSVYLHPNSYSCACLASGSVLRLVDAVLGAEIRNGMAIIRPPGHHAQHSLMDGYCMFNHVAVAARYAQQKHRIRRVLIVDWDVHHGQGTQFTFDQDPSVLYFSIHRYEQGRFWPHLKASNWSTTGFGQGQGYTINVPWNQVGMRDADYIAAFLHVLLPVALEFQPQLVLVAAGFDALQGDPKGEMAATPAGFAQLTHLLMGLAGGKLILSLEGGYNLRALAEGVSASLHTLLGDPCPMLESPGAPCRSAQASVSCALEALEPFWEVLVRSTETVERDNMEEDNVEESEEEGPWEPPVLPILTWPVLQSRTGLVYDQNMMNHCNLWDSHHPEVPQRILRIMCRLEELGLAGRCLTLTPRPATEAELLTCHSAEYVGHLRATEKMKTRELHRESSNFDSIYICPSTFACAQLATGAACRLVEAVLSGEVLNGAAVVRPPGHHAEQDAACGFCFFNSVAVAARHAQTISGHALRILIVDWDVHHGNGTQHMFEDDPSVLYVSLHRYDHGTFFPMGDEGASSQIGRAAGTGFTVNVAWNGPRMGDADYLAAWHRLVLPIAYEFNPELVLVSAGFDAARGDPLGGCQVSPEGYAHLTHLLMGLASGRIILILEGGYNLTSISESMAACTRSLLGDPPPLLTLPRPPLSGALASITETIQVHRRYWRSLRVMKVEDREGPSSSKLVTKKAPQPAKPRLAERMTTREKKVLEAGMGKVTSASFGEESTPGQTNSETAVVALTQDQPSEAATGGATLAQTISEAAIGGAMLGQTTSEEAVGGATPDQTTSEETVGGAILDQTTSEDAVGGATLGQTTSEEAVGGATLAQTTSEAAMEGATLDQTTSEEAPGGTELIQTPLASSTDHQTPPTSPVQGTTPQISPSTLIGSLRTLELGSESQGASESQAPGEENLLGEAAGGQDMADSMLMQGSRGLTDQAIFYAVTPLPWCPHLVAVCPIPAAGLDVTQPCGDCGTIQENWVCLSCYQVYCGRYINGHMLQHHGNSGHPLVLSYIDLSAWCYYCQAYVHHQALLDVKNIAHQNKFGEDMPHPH
Procedure: as §1

[2] = Oral pharmacokinetics (Table II); design: AUC: concentration or dose not given beside the values; conditions: in vivo; for AUC: unit inferred
[3] = test system: dorsal root ganglion (DRG) cells; assay: DRG neurite outgrowth after paclitaxel-induced damage; type: cell-based, C57BL/6J mice; conditions: 0.1 μM and 1 μM, 24 hours prior to 24-hour 0.1 μM paclitaxel; FIG. 1
Procedure: (§2) To investigate the effect of HDAC6 inhibitors in neuron protection and neuron regeneration, the recovery of dorsal root ganglion (DRG) cells post-paclitaxel injury was tested. Dorsal root ganglion was extracted from 7 week-old female C57BL/6J mice and incubated with HDAC6 inhibitors (compounds COMPOUND 33, COMPOUND 34, or COMPOUND 2) at the concentrations of 0.1 μM and 1 μM, or 100 ng/ml of BDNF, a neuronal growth factor (positive control), for 24 hours prior to a 24-hour incubation of 0.1 μM paclitaxel.
The neurite was stained by pIII-tubulin.

[4] = test system: acetylated α-tubulin (Ac-α-tub); assay: Western blot of acetylated α-tubulin in primary DRG cells; type: cell-based, C57BL/6J mice; conditions: 48 hours of treatment, FIG. 2
Procedure: as §2

[5] = test system: paclitaxel-induced peripheral neuropathy; assay: Paclitaxel-induced peripheral neuropathy, Von Frey test; type: in vivo, Sprague-Dawley (SD) rats; conditions: for mean withdrawal force threshold: 15 mg/kg one hour prior to test, mean±SEM
Procedure: Male Sprague-Dawley (SD) rats, weighing 320±30 grams, were given paclitaxel intraperitoneally at the dose of 6 mg/kg for 5 consecutive days with a total cumulative dose of 30 mg/kg to induce chemotherapy-induced peripheral neuropathy.
Compound 2 or vehicle was administered orally once daily for 2 weeks during the weekdays (Days 8 to 12 and 15-19). Mechanical allodynia is assessed by the manual Von Frey test once per week. The animals are given 20 to 30 minutes to acclimatize prior to the testing. The paw is pressed with a series of 8 manual Von Frey monofilaments with logarithmically incremental stiffness [3.61 (0.4 g), 3.84 (0.6 g), 4.08 (1.0 g), 4.31 (2.0 g), 4.56 (4.0 g), 4.93 (8.0 g), 5.18 (15.0 g) and (26.0 g)]. The manual Von Frey monofilament was applied perpendicularly from underneath the mesh floor to the central plantar surface with sufficient force to cause a slight buckling against the paw, and held for approximately 6-8 seconds. A positive response was noted if the paw is sharply withdrawn; ambulation is considered an ambiguous response, and in such cases, the stimulus is reapplied. The 50% paw withdrawal threshold (PWT) to a static mechanical stimulus was assessed using Von Frey filament and up-and-down method.
Von Frey data were presented as mean±SEM (Standard Error of the Mean). Treatment groups were compared to the paclitaxel control using Student's T-test. A p value <0.05 is considered to represent a significant difference.

T1 sequence (Q13547 whole entry): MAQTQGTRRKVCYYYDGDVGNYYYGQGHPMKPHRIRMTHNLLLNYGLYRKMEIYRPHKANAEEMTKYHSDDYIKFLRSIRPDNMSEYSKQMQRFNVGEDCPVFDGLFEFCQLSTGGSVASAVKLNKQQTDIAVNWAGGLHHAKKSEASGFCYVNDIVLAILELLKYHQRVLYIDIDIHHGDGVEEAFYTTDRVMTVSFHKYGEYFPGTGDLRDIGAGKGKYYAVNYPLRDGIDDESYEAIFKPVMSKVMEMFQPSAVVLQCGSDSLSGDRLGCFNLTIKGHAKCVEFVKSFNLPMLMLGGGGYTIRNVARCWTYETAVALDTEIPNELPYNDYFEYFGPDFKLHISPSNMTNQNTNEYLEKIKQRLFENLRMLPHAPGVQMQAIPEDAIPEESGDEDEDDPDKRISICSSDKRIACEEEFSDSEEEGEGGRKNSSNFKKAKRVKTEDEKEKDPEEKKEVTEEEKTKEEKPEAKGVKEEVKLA

Structure (SMILES) | neurite degeneration (neurite area and number of blebs ratio) (Rat DRG cells) | mean withdrawal threshold (50% PWT) [1] | IC50 (HDAC1) | HDAC6 selectivity (A)/(B) (HDAC6) | IC50 (HDAC6) | Cmax [2] | AUC [2] | neurite outgrowth [3] | tubulin hyperacetylation [4] | mean withdrawal force threshold ([5]; Day 14) | mean withdrawal force threshold ([5]; Day 21) | pain-relief after dosing was stopped ([5]; FIG. 7)
O=C(CCCCCCNC(=O)c1cnc(N(c2ccccc2)c2ccccc2)nc1)NO [ACY-1215, reference compound] | significantly lesser degree of neurite degeneration | not ACY1215, Reverses Cisplatin-Induced Neuropathy |  |  |  |  |  |  |  |  |  | 
Cc1cccc(C)c1-n1c(C)nc2cc(F)c(/C=C/C(=O)NO)cc2c1=O [Compound 1, (E)-3-(3-(2,6-dimethylphenyl)-7-fluoro-2-methyl-4-oxo-3,4-dihydroquinazolin-6-yl)-N-hydroxyacrylamide] |  |  | 3940 nM | 328 | 12 nM | 4130 ng/mL | 5830 ng·h/mL |  |  |  |  | 
CCc1nc2cc(F)c(/C=C/C(=O)NO)cc2c(=O)n1-c1ccc(Br)cc1C [Compound 6, (E)-3-(3-(4-bromo-2-methylphenyl)-2-ethyl-7-fluoro-4-oxo-3,4-dihydroquinazolin-6-yl)-N-hydroxyacrylamide] |  |  | 5100 nM | 85 | 60 nM | 3630 ng/mL | 42600 ng·h/mL |  |  |  |  | 
CCc1nc2c(F)cc(/C=C/C(=O)NO)cc2c(=O)n1-c1c(C)cccc1C [Compound 11, (E)-3-(3-(2,6-dimethylphenyl)-2-ethyl-8-fluoro-4-oxo-3,4-dihydroquinazolin-6-yl)-N-hydroxyacrylamide] |  |  | 6900 nM | 43 | 159 nM | 727 ng/mL | 7180 ng·h/mL |  |  |  |  | 
CCc1nc2cc(F)c(/C=C/C(=O)NO)cc2c(=O)n1-c1cccc(C)c1C [Compound 22, (E)-3-(3-(2,3-dimethylphenyl)-2-ethyl-7-fluoro-4-oxo-3,4-dihydroquinazolin-6-yl)-N-hydroxyacrylamide] |  |  | 4240 nM | 77 | 55 nM | 3330 ng/mL | 9920 ng·h/mL |  |  |  |  | 
CCc1nc2cc(F)c(/C=C/C(=O)NO)cc2c(=O)n1-c1ccc(F)cc1C [Compound 26, (E)-3-(2-ethyl-7-fluoro-3-(4-fluoro-2-methylphenyl)-4-oxo-3,4-dihydroquinazolin-6-yl)-N-hydroxyacrylamide] |  |  | 4320 nM | 180 | 24 nM | 2680 ng/mL | 12000 ng·h/mL |  |  |  |  | 
CCc1nc2cc(F)c(/C=C/C(=O)NO)cc2c(=O)n1-c1ccc(OC)cc1C [Compound 34, (E)-3-(2-ethyl-7-fluoro-3-(4-methoxy-2-methylphenyl)-4-oxo-3,4-dihydroquinazolin-6-yl)-N-hydroxyacrylamide] |  |  | 4550 nM | 175 | 26 nM | 873 ng/mL | 11000 ng·h/mL | significantly rescued the neurite outgrowth | tubulin hyperacetylation |  |  | 
Cc1ccccc1-n1c(C)nc2cc(F)c(/C=C/C(=O)NO)cc2c1=O [Compound 44] |  |  | 2580 nM | 129 | 20 nM | 719 ng/mL | 5720 ng·h/mL |  |  |  |  | 
CC(C)C[C@H](CN)CC(=O)O [Pregabalin, reference compound] |  | increased withdrawal threshold |  |  |  |  |  |  |  | 24.1 ± 3.45 g | 26 ± 0 g | failed to show the efficacy
